From publication PMC4564290 (Journal of Molecular and Cellular Cardiology, 2015)
Entries after “also recorded” stand apart in the source; their conditions may differ.

Columns and labels:
[1] = test system: F656V hERG; settings: cited from earlier work
[2] = biological target: N588K hERG (Homo sapiens, UniProt Q12809, N588K); design: expressed in transfected cells; host or cells: HEK cells; settings: IC50 mutant/IC50 WT; mammalian expression; ref 15 of supplement; cited from earlier work
[3] = biological target: T1, wild-type (WT) hERG channels (Homo sapiens, UniProt Q12809); assay: Whole-cell patch clamp of WT IhERG in HEK293 cells at 37 °C; assay type: cell-based; settings: for Fraction of unblocked IhERG: 6–8 min; for Whole-cell IhERG current density: ~6 min, drug-free control 315.3 ± 56.7
T1 construct: expressed in transfected cells
Procedure: (§1) HEK cells stably or transiently expressing hERG channel constructs were cultured as previously described [[34,37]]. The cells were plated in 40 mm petri dishes at least 48 h before transfection and incubated at 37 °C (5% CO2). Cells were transfected with Lipofectamine™ LTX (Invitrogen) following the manufacturer's instructions. The amount of transfected hERG construct DNA varied between 0.2 and 1.0 μg depending on the level of functional expression (assessed as current magnitudes) of each hERG channel construct. 0.5 to 1.0 μg of CD8 was co-transfected as a transfection-marker and successfully transfected cells were identified using Dynabeads® (Invitrogen). Cells were plated on small sterilized glass shards in 40 mm petri dishes and incubated at 37 °C (5% CO2) for at least 24 h before electrophysiological recording.
(§2) Glass shards containing plated cells were placed in a recording chamber mounted on an inverted microscope (Nikon Diaphot, USA). The cells were continuously superfused with a pre-warmed (37 °C) standard Tyrode's solution containing (in mM) the following: 140 NaCl, 4 KCl, 2.5 CaCl2, 1 MgCl2, 10 Glucose, 5 HEPES (titrated to pH 7.4 with NaOH). […] Patch-pipettes were dialysed with an intracellular solution containing (in mM) the following: 130 KCl, 1 MgCl2, 5 EGTA, 5 MgATP, 10 HEPES (titrated to pH 7.2 with KOH). All recordings were made using an Axopatch 200B amplifier (Axon Instruments, now Molecular Devices) and a CV203BU head-stage. Pipette resistance compensation was between 70 and 80%. […] Data digitization rates were 10–25 kHz during all voltage protocols and an appropriate bandwidth of 2–10 kHz was set on the amplifier.
For statistical analysis, data were subject to the Kolmogorov–Smirnov normality test. Statistical comparisons were made using paired or unpaired two-tailed t tests, Wilcoxon matched pairs signed rank test, Mann–Whitney U test and one way (repeated measures, where indicated) or two way ANOVA, as appropriate.
Block of IhERG was assessed by calculating the reduction in drug of the outward ‘tail’ current at − 40 mV (assessed as the difference in magnitude between peak tail current and instantaneous current activated by the brief (50 ms) depolarization from − 80 to − 40 mV [[24,34,37]]). […] The fractional inhibition at each of four concentrations was calculated using Eq. (1) (supplementary information) and the mean values were plotted as shown in Fig. 1D and then fitted with a standard Hill equation (Eq. (2), supplementary information). […] The low expression and kinetics of some mutant channels included in this study requires that IhERG be studied as an inward current in high (94 mM) [K^+]o [[34,35,37]].
We tested the effect of two concentrations (10 and 100 μM) of each analogue applied from the cell exterior (superfusate) and interior (the latter through the patch-pipette). […] As soon as the whole-cell configuration was achieved the drug molecules were free to diffuse inside the cytoplasm, precluding cells acting as their own control.

[4] = cited from earlier work
[5] = biological target: T2, F656A hERG (Homo sapiens, UniProt Q12809, F656A); settings: 300 μM (profound blocking concentration for WT IhERG), Xenopus oocyte expression; cited from earlier work
[6] = biological target: Y652A hERG (Homo sapiens, UniProt Q12809, Y652A); design: expressed in transfected cells; settings: 300 μM (profound blocking concentration for WT IhERG), Xenopus oocyte expression; cited from earlier work
[7] = test system: L-type calcium current; settings: cited from earlier work
[8] = test system: feline ventricular E-4031 sensitive delayed rectifier current; settings: cited from earlier work
[9] = test system: Kv1.5 V505 mutated to phenylalanine; design: method as in PMID 17872968; settings: cited from earlier work
[10] = biological target: T2, F656A hERG; assay: Patch clamp of F656A S6 helix mutant IhERG; assay type: cell-based; design: expressed in transfected cells; host or cells: HEK cells; settings: internal (patch-pipette) application 100 µM, tails at -120 mV, n=8 vs control n=12
Procedure: as §1, §2
To investigate potential binding determinants in the pore region we studied alanine mutants of three residues (G648, Y652 and F656) located within the channel inner cavity on the S6 helix. […]

[11] = external application (superfusate) 10 μM
[12] = external application (superfusate) 100 μM
[13] = internal application via patch-pipette 10 μM
[14] = internal application via patch-pipette 100 μM

T2 sequence (Q12809 whole entry F656A): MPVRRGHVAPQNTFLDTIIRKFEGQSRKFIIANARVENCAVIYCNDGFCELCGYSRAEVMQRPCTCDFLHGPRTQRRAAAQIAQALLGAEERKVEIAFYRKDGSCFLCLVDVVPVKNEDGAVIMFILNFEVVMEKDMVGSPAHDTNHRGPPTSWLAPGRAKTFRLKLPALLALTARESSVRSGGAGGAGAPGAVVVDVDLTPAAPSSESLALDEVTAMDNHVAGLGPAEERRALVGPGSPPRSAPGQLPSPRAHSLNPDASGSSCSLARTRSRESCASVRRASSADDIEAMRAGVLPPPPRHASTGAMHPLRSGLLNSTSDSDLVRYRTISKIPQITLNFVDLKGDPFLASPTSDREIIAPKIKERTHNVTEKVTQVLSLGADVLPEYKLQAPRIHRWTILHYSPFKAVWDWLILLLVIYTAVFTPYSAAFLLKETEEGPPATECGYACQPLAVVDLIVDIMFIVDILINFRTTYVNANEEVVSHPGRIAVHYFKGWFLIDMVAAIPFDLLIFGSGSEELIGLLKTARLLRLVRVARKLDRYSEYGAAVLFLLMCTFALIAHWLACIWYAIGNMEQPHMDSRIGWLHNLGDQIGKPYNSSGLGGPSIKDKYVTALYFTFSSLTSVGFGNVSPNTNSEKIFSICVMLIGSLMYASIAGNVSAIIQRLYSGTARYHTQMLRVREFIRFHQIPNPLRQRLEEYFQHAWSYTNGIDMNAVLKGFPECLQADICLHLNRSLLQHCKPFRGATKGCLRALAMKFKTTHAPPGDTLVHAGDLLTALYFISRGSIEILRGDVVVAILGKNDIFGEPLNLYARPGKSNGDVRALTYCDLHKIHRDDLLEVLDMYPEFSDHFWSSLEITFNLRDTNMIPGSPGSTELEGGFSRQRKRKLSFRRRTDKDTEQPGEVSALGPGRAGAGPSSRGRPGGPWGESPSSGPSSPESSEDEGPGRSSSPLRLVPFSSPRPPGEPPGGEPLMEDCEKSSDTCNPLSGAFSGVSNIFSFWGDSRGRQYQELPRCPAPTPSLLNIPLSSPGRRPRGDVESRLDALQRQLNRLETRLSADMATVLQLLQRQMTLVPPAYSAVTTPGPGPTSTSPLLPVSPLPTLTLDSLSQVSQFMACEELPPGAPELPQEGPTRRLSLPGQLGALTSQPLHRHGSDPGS
T1 sequence (Q12809 whole entry): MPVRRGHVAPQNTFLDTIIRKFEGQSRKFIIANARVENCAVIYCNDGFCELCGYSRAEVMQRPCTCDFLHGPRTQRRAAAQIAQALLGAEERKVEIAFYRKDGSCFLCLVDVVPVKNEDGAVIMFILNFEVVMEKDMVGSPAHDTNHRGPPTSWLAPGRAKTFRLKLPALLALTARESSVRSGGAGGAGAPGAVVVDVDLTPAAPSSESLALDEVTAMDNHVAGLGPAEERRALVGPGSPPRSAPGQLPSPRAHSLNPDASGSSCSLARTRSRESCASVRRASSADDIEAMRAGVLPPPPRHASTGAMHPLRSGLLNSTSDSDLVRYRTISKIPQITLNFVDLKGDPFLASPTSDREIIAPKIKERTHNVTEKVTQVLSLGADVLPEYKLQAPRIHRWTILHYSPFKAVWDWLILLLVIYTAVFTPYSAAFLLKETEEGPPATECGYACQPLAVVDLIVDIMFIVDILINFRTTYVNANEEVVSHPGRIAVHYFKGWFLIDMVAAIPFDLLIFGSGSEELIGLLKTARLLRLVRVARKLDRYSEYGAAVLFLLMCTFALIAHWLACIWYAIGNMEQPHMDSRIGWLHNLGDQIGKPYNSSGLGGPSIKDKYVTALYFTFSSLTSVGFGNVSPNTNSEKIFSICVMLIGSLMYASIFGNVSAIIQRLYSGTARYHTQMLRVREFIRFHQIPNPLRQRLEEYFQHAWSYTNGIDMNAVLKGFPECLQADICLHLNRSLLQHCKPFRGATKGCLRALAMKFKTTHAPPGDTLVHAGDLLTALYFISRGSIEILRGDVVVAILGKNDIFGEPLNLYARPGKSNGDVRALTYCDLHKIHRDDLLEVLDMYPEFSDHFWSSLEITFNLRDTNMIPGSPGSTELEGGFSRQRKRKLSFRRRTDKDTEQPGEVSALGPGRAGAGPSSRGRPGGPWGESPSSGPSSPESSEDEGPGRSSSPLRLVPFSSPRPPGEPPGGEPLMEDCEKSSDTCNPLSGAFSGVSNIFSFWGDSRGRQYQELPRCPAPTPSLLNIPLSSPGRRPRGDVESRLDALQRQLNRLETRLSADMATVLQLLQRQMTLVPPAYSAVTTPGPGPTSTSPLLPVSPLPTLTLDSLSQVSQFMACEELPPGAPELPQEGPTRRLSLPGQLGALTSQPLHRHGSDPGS
Sequence of Y652A hERG (Q12809 whole entry Y652A): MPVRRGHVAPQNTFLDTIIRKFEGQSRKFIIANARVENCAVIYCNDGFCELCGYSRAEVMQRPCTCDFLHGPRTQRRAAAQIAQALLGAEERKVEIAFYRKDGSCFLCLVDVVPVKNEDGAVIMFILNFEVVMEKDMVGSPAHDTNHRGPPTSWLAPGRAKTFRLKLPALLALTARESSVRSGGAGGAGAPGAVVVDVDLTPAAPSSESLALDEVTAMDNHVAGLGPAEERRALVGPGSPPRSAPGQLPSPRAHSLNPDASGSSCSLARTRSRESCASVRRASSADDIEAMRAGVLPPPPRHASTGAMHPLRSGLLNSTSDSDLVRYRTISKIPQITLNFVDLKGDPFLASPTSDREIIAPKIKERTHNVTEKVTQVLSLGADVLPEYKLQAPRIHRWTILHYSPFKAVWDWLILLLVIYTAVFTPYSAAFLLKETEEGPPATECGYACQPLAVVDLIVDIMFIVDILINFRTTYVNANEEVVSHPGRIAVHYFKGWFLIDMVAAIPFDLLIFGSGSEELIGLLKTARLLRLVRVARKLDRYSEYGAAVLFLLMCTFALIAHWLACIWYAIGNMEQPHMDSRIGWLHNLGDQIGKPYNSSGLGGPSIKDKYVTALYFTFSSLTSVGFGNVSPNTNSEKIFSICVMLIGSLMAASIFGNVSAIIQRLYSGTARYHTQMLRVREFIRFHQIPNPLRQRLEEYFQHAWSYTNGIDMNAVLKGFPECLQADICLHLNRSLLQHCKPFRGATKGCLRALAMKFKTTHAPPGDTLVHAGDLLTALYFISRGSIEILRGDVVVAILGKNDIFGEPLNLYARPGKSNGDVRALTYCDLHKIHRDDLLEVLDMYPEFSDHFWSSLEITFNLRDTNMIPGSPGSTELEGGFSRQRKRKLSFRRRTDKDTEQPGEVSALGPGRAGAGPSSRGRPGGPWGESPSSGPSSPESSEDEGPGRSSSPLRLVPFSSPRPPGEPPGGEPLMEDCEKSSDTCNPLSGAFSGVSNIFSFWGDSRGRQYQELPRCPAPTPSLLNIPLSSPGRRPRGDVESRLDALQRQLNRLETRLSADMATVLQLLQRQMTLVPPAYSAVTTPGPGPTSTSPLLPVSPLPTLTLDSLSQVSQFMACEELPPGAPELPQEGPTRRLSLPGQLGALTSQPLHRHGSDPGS
Sequence of N588K hERG (Q12809 whole entry N588K): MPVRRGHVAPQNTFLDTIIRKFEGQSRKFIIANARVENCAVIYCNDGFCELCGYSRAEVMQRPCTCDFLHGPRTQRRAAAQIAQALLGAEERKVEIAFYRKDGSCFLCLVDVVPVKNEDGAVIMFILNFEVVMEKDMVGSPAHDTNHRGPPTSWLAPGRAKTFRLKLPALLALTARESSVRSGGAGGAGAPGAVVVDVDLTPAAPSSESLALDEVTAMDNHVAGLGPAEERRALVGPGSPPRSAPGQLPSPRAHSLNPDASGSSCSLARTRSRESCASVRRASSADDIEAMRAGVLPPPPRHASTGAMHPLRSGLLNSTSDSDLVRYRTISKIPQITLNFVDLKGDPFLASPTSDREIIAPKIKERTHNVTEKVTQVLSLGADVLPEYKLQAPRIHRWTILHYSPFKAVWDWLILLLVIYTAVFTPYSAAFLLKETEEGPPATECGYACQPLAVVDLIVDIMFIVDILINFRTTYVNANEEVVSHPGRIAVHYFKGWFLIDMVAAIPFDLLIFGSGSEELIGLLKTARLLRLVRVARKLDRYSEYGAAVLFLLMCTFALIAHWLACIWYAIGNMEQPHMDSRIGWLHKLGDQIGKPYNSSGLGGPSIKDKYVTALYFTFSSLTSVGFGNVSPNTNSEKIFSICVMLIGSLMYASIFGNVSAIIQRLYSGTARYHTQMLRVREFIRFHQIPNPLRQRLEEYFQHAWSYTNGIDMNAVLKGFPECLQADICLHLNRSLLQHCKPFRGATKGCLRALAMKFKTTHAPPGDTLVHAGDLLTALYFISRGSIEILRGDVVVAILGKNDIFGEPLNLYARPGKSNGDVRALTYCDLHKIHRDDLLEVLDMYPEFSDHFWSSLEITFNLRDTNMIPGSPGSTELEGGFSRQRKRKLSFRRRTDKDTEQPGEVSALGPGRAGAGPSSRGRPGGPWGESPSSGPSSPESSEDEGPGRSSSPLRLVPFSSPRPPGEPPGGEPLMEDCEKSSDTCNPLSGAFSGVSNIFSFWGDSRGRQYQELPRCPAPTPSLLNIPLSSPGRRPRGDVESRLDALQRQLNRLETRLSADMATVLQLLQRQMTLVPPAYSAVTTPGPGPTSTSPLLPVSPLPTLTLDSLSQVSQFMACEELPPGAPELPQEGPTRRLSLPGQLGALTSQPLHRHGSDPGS

C=C[C@H]1C[N@@]2CC[C@H]1C[C@@H]2[C@@H](O)c1ccnc2ccc(OC)cc12 [Quinidine]
Increase in IhERG IC50 with F656V [1]: ~ 27 fold

CC(C)NC[C@@H](O)c1ccc(NS(C)(=O)=O)cc1 [D-Sotalol]
Fold-change in IC50 N588K compared to WT IhERG [2]: 20 fold

O=C(NCCN1CCOCC1)c1cc(OCC(F)(F)F)ccc1OCC(F)(F)F [NU-Flec]
Fraction of unblocked IhERG [3, 11]: 75.8 ± 4.4%
Fraction of unblocked IhERG [3, 12]: 50.2 ± 4.3%
Whole-cell IhERG current density [3, 13]: 283.2 ± 63.4 pA/pF
Whole-cell IhERG current density [3, 14]: 359.8 ± 56.1 pA/pF
pKa [4]: 6.3

CC[C@H]1[C@@H]2C[C@H]3[C@@H]4N(C)c5ccccc5[C@]45C[C@@H]([C@H]2[C@H]5O)N3[C@@H]1O [ajmaline]
Inhibitory action on F656A IhERG [5]: ineffective
Inhibitory action on Y652A IhERG [6]: ineffective

O=C(NCC1CCCCN1)c1cc(OCC(F)(F)F)ccc1OCC(F)(F)F (centres unmarked) [flecainide, Flecainide acetate]
IC50 [7]: ~20 µM
IC50 [8]: 2.1 µM
Increase in blocking potency on mutating V505 to phenylalanine [9]: 9 fold

C[N+]1(C)CCCCC1CNC(=O)c1cc(OCC(F)(F)F)ccc1OCC(F)(F)F (centres unmarked) [QX-Flec]
Fraction of unblocked IhERG [3, 11]: 72.2 ± 4.6%
Fraction of unblocked IhERG [3, 12]: 54.6 ± 3.5%
Whole-cell IhERG current density [3, 13]: 55.3 ± 5.9 pA/pF
Whole-cell IhERG current density [3, 14]: 9.3 ± 1.9 pA/pF
Effect on density of inward F656A IhERG tails vs drug-free control [10]: ineffective; also recorded: no significant difference; also recorded: little inhibition
